In patent US12565522B2, “Micropeptide HMMW and application thereof” (NANJING ANJI BIOTECHNOLOGY CO., LTD., priority 2019, dated 2026):
No end group written: not given here.

Legend:
Experiment in all cases: Matrigel transwell invasion test
Assay type in all cases: cell-based, human
Conditions in all cases: 24 h
[1] = system: A549 cells of lung cancer
Procedure: (§1) Dilute 10 mg/mL Matrigel with culture medium at 1:3, spread it on membranes of transwell cells and dry it in the air at room temperature. Use trypsin to digest and collect SCC4 cells of head and neck cancer, SW579 cells of thyroid cancer, A549 cells of lung cancer, TE13 cells of esophageal squamous cell carcinoma, MGC803 cells of stomach cancer, MDA-MB-231 cells of breast cancer, UOK262 cells of kidney cancer, and A431 cells of skin cancer of human, which were cultured to the logarithmic phase, wash with PBS twice and re-suspend with a blank culture medium. Adjust cell concentration to 1×10^5 cells/mL. Inoculate the cells to transwell cells, 100 μL per well, and meanwhile add micropeptides HMMW I to IX at different doses to every cell. Add 0.6 mL of complete medium containing 10% FBS to the transwell cells to stimulate cell invasion, and culture in 5% CO2 at 37 DEG C. for 24 h. Discard the medium in the wells, fix with 90% alcohol at room temperature for 30 min, stain with 0.1% crystal violet at room temperature for 10 min, rinse with clear water, gently wipe off the non-invaded cells in the upper layer with a cotton swab, observe under a microscope and select four fields of view to take pictures and count. Calculate the invasion inhibition rate (IIR) of the cells according to the following formula:
(§2) [formula] where Ntest is the number of invaded cells in the test groups (the groups at a dose of 1, 4 or 16 μM in the table), Ncontrol is the number of invaded cells in the blank control groups (the groups at a dose of 0 μM in the table). The test was repeated independently three times. Mean±SD was calculated based on the test results. Statistical t test was done. Value P was used to express statistical difference. The statistical significance of the results is a method for estimating how true the results are (the totality can be represented), *P<0.05 means significant difference, and **P<0.01 means very significant difference.

[2] = system: MDA-MB-231 cells of breast cancer
Procedure: as §1, §2

[3] = system: UOK262 cells of kidney cancer
Procedure: as §1, §2

[4] = system: SCC4 cells of head and neck cancer
Procedure: as §1, §2

[5] = system: A431 cells of skin cancer
Procedure: as §1, §2

[6] = system: MGC803 cells of stomach cancer
Procedure: as §1, §2

[7] = system: SW579 cells of thyroid cancer
Procedure: as §1, §2

[8] = system: TE13 cells of esophageal squamous cell carcinoma
Procedure: as §1, §2

Substance	invasion inhibition rate ([1]; dose 1 μM) [%]	invasion inhibition rate ([1]; dose 4 μM) [%]	invasion inhibition rate ([1]; dose 16 μM) [%]	invasion inhibition rate ([2]; dose 1 μM) [%]	invasion inhibition rate ([2]; dose 4 μM) [%]	invasion inhibition rate ([2]; dose 16 μM) [%]	invasion inhibition rate ([3]; dose 1 μM) [%]	invasion inhibition rate ([3]; dose 4 μM) [%]	invasion inhibition rate ([3]; dose 16 μM) [%]	invasion inhibition rate ([4]; dose 1 μM) [%]	invasion inhibition rate ([4]; dose 4 μM) [%]	invasion inhibition rate ([4]; dose 16 μM) [%]	invasion inhibition rate ([5]; dose 1 μM) [%]	invasion inhibition rate ([5]; dose 4 μM) [%]	invasion inhibition rate ([5]; dose 16 μM) [%]	invasion inhibition rate ([6]; dose 1 μM) [%]	invasion inhibition rate ([6]; dose 4 μM) [%]	invasion inhibition rate ([6]; dose 16 μM) [%]	invasion inhibition rate ([7]; dose 1 μM) [%]	invasion inhibition rate ([7]; dose 4 μM) [%]	also measured
MGSTYNKRHSPRRSSVEAKMQSTSCSVRKSSTVTAWPAVVLLLSWGQRRGG-OH [HMMW-III]	32.13	52.30	66.09	28.91	49.82	68.36	34.37	55.15	67.23	22.75	48.24	75.84	33.70	53.21	67.33	25.11	53.38	67.61	18.63	42.76	invasion inhibition rate ([7]; dose 16 μM): 63.89%; invasion inhibition rate ([8]; dose 1 μM): 21.23%; invasion inhibition rate ([8]; dose 4 μM): 41.81%; invasion inhibition rate ([8]; dose 16 μM): 63.31%
MERAGVPGFSPRRSSVEAKMQSTSCSVRKSSTVTAWPAVVLLLSWGQRRGE-OH [HMMW-VIII]	34.03	55.20	68.03	27.90	45.81	64.26	35.27	54.14	68.21	23.71	49.14	76.64	34.50	55.11	69.43	26.01	57.18	70.60	19.61	43.56	invasion inhibition rate ([7]; dose 16 μM): 64.79%; invasion inhibition rate ([8]; dose 1 μM): 24.21%; invasion inhibition rate ([8]; dose 4 μM): 42.31%; invasion inhibition rate ([8]; dose 16 μM): 61.51%
